Some test systems named below: MOLT-4 leukemia; 786-0 renal; NCI-H23 lung; HT29 colon; HCC-2998 colon; SNB-19 CNS; DU-145 prostate; SNB-75 CNS; K-562 leukemia; PC-3 prostate.
Holding throughout (experiment): NCI anticancer screen, dose series, 48 h

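Interpolation was linear, between the two tested concentrations surrounding the appropriate level; five concentrations were tested over 48 hours in 96-well plates. Here, GI50 denotes the concentration required for 50% inhibition of growth. TGI marks complete inhibition of growth.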

In the case of `COc1ccc(-c2cc(=O)c3c(OC)c(OC)c(OC)cc3o2)cc1`, the TGI in the assay with MOLT-4 leukemia is above 100 µM; in the assay on 786-0 renal it was above 100 µM; with NCI-H23 lung, above 100 µM; in the assay with HT29 colon, 99.5 µM; in the assay on HCC-2998 colon, 49 µM; with SNB-19 CNS, above 100 µM. The TGI in the assay with DU-145 prostate, in the assay on SNB-75 CNS and in the assay on K-562 leukemia was above 100 µM throughout.
Consider `COC1/C=C\C=C(/C)C(=O)NC2=CC(=O)C(=O)C(=C2O)CC(C)CC(OC)C(O)C(C)/C=C(\C)C1OC(N)=O` (stereo not given), for which the TGI is above 37.7 µM with PC-3 prostate; above 52.3 µM in the assay on MOLT-4 leukemia; 24.3 µM in the assay with 786-0 renal; above 100 µM with NCI-H23 lung; 17.8 µM in the assay on HT29 colon; above 100 µM in the assay with SNB-19 CNS. For the same compound, the values for the TGI in the assay with DU-145 prostate and with K-562 leukemia were 35.5 µM and above 100 µM, respectively.
Turning to `COC12C=C(C)C(CC1)CC2C(=O)O` (stereo not given), the TGI with MOLT-4 leukemia, with 786-0 renal, in the assay on NCI-H23 lung, with HT29 colon, in the assay on HCC-2998 colon and with SNB-19 CNS was above 100 µM each time. Besides, the TGI with SNB-75 CNS and in the assay with K-562 leukemia was above 100 µM each time.
Turning to `Brc1cccc(C=NC23CC4CC(CC(C4)C2)C3)c1`, the TGI in the assay with MOLT-4 leukemia, in the assay with 786-0 renal, with NCI-H23 lung, in the assay on HT29 colon, with HCC-2998 colon and in the assay with SNB-19 CNS was above 100 µM throughout. For the same compound, the TGI with SNB-75 CNS and with K-562 leukemia was above 100 µM each time.
Consider `CC[C@@]1(O)C(=O)OCc2c1cc1n(c2=O)Cc2c-1nc1cc3c(cc1c2CCl)OCO3`, for which the GI50 was 39.2 nM with PC-3 prostate; below 10 nM with MOLT-4 leukemia; below 0.01 µM in the assay with 786-0 renal; below 0.01 µM in the assay with NCI-H23 lung; 27.1 nM in the assay on HT29 colon; 0.365 µM in the assay on HCC-2998 colon. The GI50 in the assay on SNB-19 CNS is below 0.018 µM; in the assay with DU-145 prostate it was below 0.01 µM; in the assay with SNB-75 CNS, below 10 nM. Further, the TGI in the assay with PC-3 prostate is above 36.4 µM; with MOLT-4 leukemia it was below 0.038 µM; in the assay with 786-0 renal, 0.238 µM; with NCI-H23 lung, below 0.0153 µM; in the assay with HT29 colon, above 22.3 µM; in the assay on HCC-2998 colon it was 8.58 µM. The TGI in the assay with SNB-19 CNS was above 100 µM; in the assay with SNB-75 CNS it was 2.08 µM.
For the compound `Nc1cc(N)c2nc(-c3ccccc3)c(Nc3ccc(Cl)c(Cl)c3)nc2c1`, the GI50 in the assay with PC-3 prostate was 3120 nM; with MOLT-4 leukemia, 4050 nM; in the assay on 786-0 renal, 14.7 µM; in the assay on NCI-H23 lung it was 19.1 µM; with SNB-19 CNS, 12.9 µM; in the assay with DU-145 prostate, 16.7 µM. For the same compound, the GI50 in the assay on K-562 leukemia was 3.57 µM. The TGI in the assay with PC-3 prostate is 15.1 µM; in the assay with MOLT-4 leukemia it was above 100 µM; in the assay on 786-0 renal, 37 µM; in the assay with NCI-H23 lung, 55.2 µM; with SNB-19 CNS, 30.2 µM; in the assay on DU-145 prostate, 32.6 µM. Further, the TGI in the assay with K-562 leukemia is above 100 µM.
For `C[C@@H]1OC(O)[C@@H](F)[C@H](O)[C@@H]1O` (stereo not given in full), the GI50 in the assay with PC-3 prostate is above 100000 nM; in the assay with MOLT-4 leukemia it was above 100000 nM; with 786-0 renal it was above 100 µM; in the assay with NCI-H23 lung, above 100 µM; with HT29 colon it was above 100000 nM; in the assay on HCC-2998 colon, above 100 µM. The GI50 in the assay on SNB-19 CNS is above 100 µM; with DU-145 prostate it was above 100 µM; with SNB-75 CNS, above 100000 nM. Further, the TGI in the assay on PC-3 prostate, in the assay with MOLT-4 leukemia, with 786-0 renal, in the assay on NCI-H23 lung, in the assay with HT29 colon and in the assay on HCC-2998 colon was above 100 µM each time. Also, the TGI in the assay on SNB-19 CNS, in the assay with DU-145 prostate and with SNB-75 CNS was above 100 µM throughout.
On to `O=c1c2cc([N+](=O)[O-])ccc2sc2ccsc12`, for which the TGI with MOLT-4 leukemia, with 786-0 renal, in the assay with NCI-H23 lung, in the assay with HT29 colon, in the assay with HCC-2998 colon and in the assay with SNB-19 CNS was above 100 µM in each case. For the same compound, the TGI in the assay on SNB-75 CNS and with K-562 leukemia was above 100 µM each time.
`O=C1CCCCN1CCCCC#Cc1ccccc1C#Cc1ccc([N+](=O)[O-])cc1`: the GI50 in the assay with MOLT-4 leukemia is 2790 nM; with 786-0 renal, 8.41 µM; with NCI-H23 lung it was 4.23 µM; with HT29 colon, 3740 nM; in the assay on SNB-19 CNS, 6.57 µM; in the assay on DU-145 prostate, 17.5 µM. Also, the GI50 in the assay on SNB-75 CNS is 2210 nM; with K-562 leukemia it was 3.6 µM. For the same compound, the TGI with MOLT-4 leukemia stood at 9.22 µM; in the assay on 786-0 renal, 79 µM; in the assay on NCI-H23 lung, 17.1 µM; in the assay on HT29 colon, 59.6 µM; in the assay on SNB-19 CNS, 19.4 µM; in the assay with DU-145 prostate, 36 µM. In addition, the TGI in the assay on SNB-75 CNS is 28.9 µM; with K-562 leukemia, 22.3 µM.
`O=C1c2cc(Cl)ccc2S(=O)(=O)c2c(NCCCNCCO)nc3ccccc3c21`: the GI50 in the assay with PC-3 prostate is 1530 nM; with MOLT-4 leukemia it was 1820 nM; with 786-0 renal, 1.71 µM; with NCI-H23 lung it was 1.77 µM; in the assay on HT29 colon, 1400 nM; in the assay with HCC-2998 colon it was 4.31 µM. Further, the GI50 is 3.77 µM in the assay with SNB-19 CNS, 1.25 µM with DU-145 prostate and 2150 nM in the assay with SNB-75 CNS. In addition, the TGI in the assay on PC-3 prostate was 3.66 µM; with MOLT-4 leukemia, 5.63 µM; with 786-0 renal, 3.34 µM; in the assay with NCI-H23 lung it was 4.4 µM; in the assay on HT29 colon, 2.94 µM; with HCC-2998 colon it was 15.1 µM. The TGI was 14.4 µM in the assay on SNB-19 CNS, 2.52 µM with DU-145 prostate and 9.35 µM with SNB-75 CNS.
As for `COC(=O)C1Cc2c(n(Cc3ccccc3)c3ccccc23)C(CCC(=O)O)N1C(C)C` (stereo not given), the TGI with MOLT-4 leukemia, in the assay on 786-0 renal, with NCI-H23 lung, in the assay with HT29 colon, in the assay on HCC-2998 colon and in the assay on SNB-19 CNS was above 100 µM each time. Moreover, the TGI in the assay with SNB-75 CNS and in the assay with K-562 leukemia was above 100 µM throughout.
For `O=C(/C=C/c1c(O)ccc2ccccc12)c1cccc(O)c1`, the TGI with MOLT-4 leukemia, in the assay with 786-0 renal, with NCI-H23 lung, in the assay on HT29 colon, with HCC-2998 colon and in the assay with SNB-19 CNS was above 100 µM in each case. The TGI with SNB-75 CNS and in the assay with K-562 leukemia was above 100 µM in each case.
